35 compounds from the supplement of paper PMC10949913 can be followed below.

Molecules are shown by their SMILES.

Common to all, as to assay: area under concentration-response curve (viability) (AUC (a.u.)); higher = less active
Holding throughout (details): 48 h

In one assay the test system is CU-ACC2. In outline:
(§1)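 After 48 h of treatment with 23 nL of each library compound at 11 concentrations, three adrenocortical carcinoma cell lines in 1,536-well plates (500–1,000 cells/well, 5 µL medium) were given CellTiter-Glo for 15 minutes at room temperature. Luminescence was then read and normalised per plate to vehicle and empty-well controls. AC50 and area under the curve were drawn from fitted concentration-response curves of inhibitory or non-responding classes only.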

The next assay concerns CU-ACC1. In outline:
as §1

A further assay has as its system NCI-H295R. An outline of the steps: as §1

`C[C@@H]1CC[C@H]2[C@@H](C)C(=O)O[C@@H]3O[C@@]4(C)CC[C@@H]1[C@]32OO4`: the results for the “area under concentration-response curve” value in the assay on CU-ACC2, in the assay on CU-ACC1 and in the assay on NCI-H295R were 604, 547 and 556, respectively.
The matching figures for `COc1ccc2[nH]c(C(=O)N3CCC(CC(C)(C)O)CC3)cc2c1`: 609, 484 and 572.
Consider `CCC(=O)O[C@@]1(CC[C@H]2[C@@H]3CCC/4=C/C(=O)CC[C@]4(C)[C@H]3CC[C@]12C)C(=O)CO`, for which the “area under concentration-response curve” value in the assay on CU-ACC2 stood at 585; in the assay with CU-ACC1 it was 508; with NCI-H295R, 518.
Turning to `COc1nc(C)cnc1N[S+](=O)([O-])c1cccnc1-c1ccc(-c2nnco2)cc1`, the “area under concentration-response curve” value in the assay on CU-ACC2 is 600; with CU-ACC1 it was 520; with NCI-H295R, 509.
Turning to `C[C@H](c1ccc(F)cc1CCCC(=O)O)N(c1cc(F)ccc1F)[S+](=O)([O-])c1ccc(Cl)cc1`, the entries for the “area under concentration-response curve” value in the assay on CU-ACC2, with CU-ACC1 and with NCI-H295R were 596, 519 and 553, respectively.
The matching figures for `N/C(=N\OCC(O)CN1CCCCC1)c1cccnc1` (stereo unspecified): 447, 415 and 455.
The matching figures for `COc1cc(OC)c(C(=O)CCCN2CCCC2)c(OC)c1`: 500, 440 and 465.
Consider `NC(=O)c1cnc(-c2ccc(C3(N)CCC3)cc2)c(-c2ccccc2)c1`, for which the entries for the “area under concentration-response curve” value in the assay with CU-ACC2, with CU-ACC1 and with NCI-H295R were 648, 537 and 554, respectively.
The matching figures for `N=C1S/C(=C\c2ccc(-c3ccc4c(c3)C(=O)NC4=O)o2)C(=O)N1c1ccc(Br)cc1`: 675, 563 and 618.
The matching figures for `CN1CC[C@@H](NC(=O)Nc2ccc(C#N)cc2)C[C@@H]1c1nc2ccccc2[nH]1`: 595, 485 and 555.
For `CNC(=O)c1ccc(-c2cnc3ncc(Cc4ccc5ncccc5c4)n3n2)cc1F`, the “area under concentration-response curve” value with CU-ACC2 stood at 520; in the assay on CU-ACC1, 481; in the assay with NCI-H295R, 511.
Consider `Cc1ccc(NC(=O)[C@H]2CCCN(C(=O)c3c(C)cccc3F)[C@H]2c2ccc(NC3CCCC3)cc2)cc1C(F)(F)F`, for which the “area under concentration-response curve” value turned out to be 561 with CU-ACC2 and 521 with NCI-H295R.
For the compound `COc1ccc2[nH]c([S+]([O-])Cc3ncc(C)c(OC)c3C)nc2c1` (stereo unspecified), the “area under concentration-response curve” value was 624 in the assay with CU-ACC2 and 576 in the assay on NCI-H295R.
As to `NC/1=N/C(=O)N/C=C1F`, the “area under concentration-response curve” value with CU-ACC2 was 633; with NCI-H295R, 595.
The matching figures for `OC(=O)C/1=C/C(=O)NC(=O)N1`: 530 and 529.
Regarding `Cn1cnc(-c2cc3nccc(Oc4ccc(NC(=S)NC(=O)Cc5ccccc5)cc4F)c3s2)c1`, the results for the “area under concentration-response curve” value with CU-ACC2 and with NCI-H295R were 359 and 412, respectively.
For `CC/C(=C(\c1ccccc1)c1ccc(OCCN(C)C)cc1)c1ccccc1`, the figures for the “area under concentration-response curve” value with CU-ACC2 and with NCI-H295R were 455 and 554, respectively.
In the case of `O=C(O)c1cnn(-c2nc3cc(Cl)c(OC(F)(F)F)cc3[nH]2)c1`, the “area under concentration-response curve” value in the assay with CU-ACC2 was determined as 605; in the assay with NCI-H295R, 548.
The matching figures for `CCCCOc1ccc(CC(=O)NO)cc1`: 631 and 573.
The matching figures for `CC[C@H](NC1=C2[NH]C=NC2=NC=N1)/C3=C(/C(=O)C4=CC=CC=C4O3)C5=CC=CC(=C5)F`: 432 and 488.
The matching figures for `CN1CCN(c2ccc([N+](=O)[O-])c3no[n+]([O-])c23)CC1`: 630 and 583.
As for `NC(=S)N/N=C/c1ncccc1N`, the results for the “area under concentration-response curve” value with CU-ACC2 and in the assay on NCI-H295R were 442 and 440, respectively.
Regarding `C[S+](=O)([O-])c1ccc(-c2cnc(N)c(C(=O)Nc3ccccc3)n2)cc1`, the “area under concentration-response curve” value was found to be 473 with CU-ACC2 and 534 with NCI-H295R.
The matching figures for `C=Cc1cc(O)cc2nc(-c3ccc(O)c(F)c3)oc12`: 587 and 550.
Regarding `COC1=CC2=C(C=C1OCCCN3CCCC3)\N=C(N)/C24CCC4`, the “area under concentration-response curve” value with CU-ACC2 is 578; in the assay with NCI-H295R, 547.
With `CNC(=O)c1ccc(N2C(=S)N(c3ccc(C#N)c(C(F)(F)F)c3)C(=O)C2(C)C)cc1F`, the “area under concentration-response curve” value is 559 with CU-ACC2 and 499 in the assay on NCI-H295R.
The matching figures for `CCc1cccc(CC)c1NC(=O)N1Cc2[nH]nc(NC(=O)c3ccc(N4CCN(C)CC4)cc3)c2C1`: 614 and 597.
The matching figures for `Cc1ccc2c(=O)c3cccc(CC(=O)O)c3oc2c1C`: 540 and 486.
Take `CC[C@H](NC(=O)[C@H](C)NC)C(=O)N1C[C@@H](O)C[C@H]1Cc1c(-c2[nH]c3cc(F)ccc3c2C[C@@H]2C[C@H](O)CN2C(=O)[C@H](CC)NC(=O)[C@H](C)NC)[nH]c2cc(F)ccc12`: the “area under concentration-response curve” value in the assay on CU-ACC2 was 602; in the assay on NCI-H295R, 610.
Take `CCN(CC)CCCC(C)Nc1nc(C)cc(Nc2ccc3nc(C)cc(N)c3c2)n1` (stereo unspecified): the “area under concentration-response curve” value in the assay with CU-ACC2 came out at 478; with NCI-H295R, 507.
`NNC(=O)c1ccncc1`: the “area under concentration-response curve” value in the assay on CU-ACC2 is 500; in the assay on NCI-H295R, 554.
Consider `CC[C@@](C)(Nc1ccnc(-c2c[nH]c3ncccc23)n1)C(=O)NCC(F)(F)F`, for which the “area under concentration-response curve” value in the assay with CU-ACC2 came to 589; in the assay on NCI-H295R it was 539.
The matching figures for `COC(=O)N(CC(=O)O)Cc1cccc(OCc2nc(-c3ccc(Cl)cc3)oc2C)c1`: 553 and 452.
For the compound `CCCC[N+]1(C)[C@@H]2CC(OC(=O)[C@H](CO)c3ccccc3)C[C@H]1[C@@H]1O[C@@H]12` (stereo partly specified), the “area under concentration-response curve” value is 630 in the assay on CU-ACC2 and 568 in the assay on NCI-H295R.
The matching figures for `OCc1ccccc1O[C@@H]1O[C@H](CO)[C@@H](O)[C@H](O)[C@H]1O`: 616 and 563.
